Test results from patent US11566007B2, “Ras inhibitors” (Revolution Medicines, Inc., priority 2019, dated 2023).
Where two headings read alike, the source gives them in different places.

Assays:
[1] = tested on: NCI-H358 (K-Ras G12C); test: CellTiter-Glo cell viability assay, NCI-H358; assay type: cell-based, human; conditions: NCI-H358, 5-day treatment, class symbols, read-out: Additional H358 Cell Viability assay data (K-Ras G12C, IC50)
Method: Note—The following protocol describes a procedure for monitoring cell viability of K-Ras mutant cancer cell lines in response to a compound of the invention. Other RAS isoforms may be employed, though the number of cells to be seeded will vary based on cell line used.
Test compounds (132.5 nL) were directly dispensed into the assay plates containing cells. […] On day 5, assay plates and their contents were equilibrated to room temperature for approximately 30 minutes. […] Luminescence was measured using the PerkinElmer Enspire. Data were normalized by the following: (Sample signal/Avg. DMSO)*100. The data were fit using a four-parameter logistic fit.

[2] = tested on: NCI-H358 cells (K-Ras G12C); test: Potency assay: pERK in NCI-H358 cells; assay type: cell-based, human; conditions: H358 KRAS G12C, read-out: pERK EC50
Method: The purpose of this assay is to measure the ability of test compounds to inhibit K-Ras in cells. […] This procedure measures a decrease in cellular pERK in response to test compounds.
NCI-H358 cells were grown and maintained using media and procedures recommended by the ATCC. On the day prior to compound addition, cells were plated in 384-well cell culture plates (40 μl/well) and grown overnight in a 37° C., 5% CO2 incubator. Test compounds were prepared in 10, 3-fold dilutions in DMSO, with a high concentration of 10 mM. On the day of assay, 40 nL of test compound was added to each well of cell culture plate using an Echo550 liquid handler (LabCyte®). Concentrations of test compound were tested in duplicate. After compound addition, cells were incubated 4 hours at 37° C., 5% CO2. Following incubation, culture medium was removed and cells were washed once with phosphate buffered saline.
In some experiments, cellular pERK level was determined using the AlphaLISA SureFire Ultra p-ERK1/2 Assay Kit (PerkinElmer). Cells were lysed in 25 μL lysis buffer, with shaking at 600 RPM at room temperature. […] After a 2-hour incubation in the dark, 5 μL donor mix was added, plate was sealed, and incubated 2 hours at room temperature. Signal was read on an Envision plate reader (PerkinElmer) using standard AlphaLISA settings. Analysis of raw data was carried out in Excel (Microsoft) and Prism (GraphPad). Signal was plotted vs. the decadal logarithm of compound concentration, and IC50 was determined by fitting a 4-parameter sigmoidal concentration response model.
In other experiments, cellular pERK was determined by In-Cell Western. […] Fixed cells were washed 4 times for 5 minutes with TBS containing 0.1% Triton X-100 (TBST) and then blocked with 100 μL Odyssey blocking buffer (LI-COR) for 60 minutes at room temperature. […] Cells were washed 4 times for 5 minutes with TBST. Secondary antibody (IR-800CW rabbit, LI-COR, diluted 1:800) and DNA stain DRAQS (LI-COR, diluted 1:2000) were added and incubated 1-2 hours at room temperature. Cells were washed 4 times for 5 minutes with TBST. Plates were scanned on a Li-COR Odyssey CLx Imager. Analysis of raw data was carried out in Excel (Microsoft) and Prism (Graph Pad). Signal was plotted vs. the decadal logarithm of compound concentration, and IC50 was determined by fitting a 4-parameter sigmoidal concentration response model.

## C=CC(=O)N1CC[C@H](C(=O)N(C)[C@H](C(=O)N[C@H]2Cc3cc(O)cc(c3)-c3ccc4c(c3)c(c(-c3cccnc3COC)n4CC)CC(C)(C)COC(=O)[C@@H]3CCCN(N3)C2=O)C(C)C)C1 [Example A16]
[1]; Homo sapiens, NCI-H358, 120 h
  IC50: 0.01 to 0.1 µM
[2]; Homo sapiens, NCI-H358
  EC50: < 5 µM

## C=CC(=O)N1CC[C@H](C(=O)N(C)[C@H](C(=O)N[C@H]2Cc3cc(O)cc(c3)-c3ccc4c(c3)c(c(-c3ccccc3OC)n4CC)CC(C)(C)COC(=O)[C@@H]3CCCN(N3)C2=O)C(C)C)C1 [Example A17]
[1]; Homo sapiens, NCI-H358, 120 h
  IC50: 0.1 to 1 µM
[2]; Homo sapiens, NCI-H358
  EC50: < 5 µM

## C=CC(=O)N1CCN(C(=O)N(C)[C@H](C(=O)N[C@H]2Cc3cc(O)cc(c3)-c3ccc4c(c3)c(c(-c3ccccc3CCOC)n4CC)CC(C)(C)COC(=O)[C@@H]3CCCN(N3)C2=O)C(C)C)CC1 [Example A18]
[1]; Homo sapiens, NCI-H358, 120 h
  IC50: 0.1 to 1 µM
[2]; Homo sapiens, NCI-H358
  EC50: < 5 µM

## CCn1c(-c2ccccc2CCOC)c2c3cc(ccc31)-c1cc(O)cc(c1)C[C@H](NC(=O)[C@H](C(C)C)N(C)C(=O)C1CCN(C(=O)/C=C/CN(C)C)CC1)C(=O)N1CCC[C@H](N1)C(=O)OCC(C)(C)C2 [Example A19]
[1]; Homo sapiens, NCI-H358, 120 h
  IC50: 0.1 to 1 µM
[2]; Homo sapiens, NCI-H358
  EC50: < 5 µM

## C=CC(=O)N1CCC(F)(C(=O)N(C)[C@H](C(=O)N[C@H]2Cc3cc(O)cc(c3)-c3ccc4c(c3)c(c(-c3ccccc3CN(C)C)n4CC)CC(C)(C)COC(=O)[C@@H]3CCCN(N3)C2=O)C(C)C)CC1 [Example A20]
[1]; Homo sapiens, NCI-H358, 120 h
  IC50: 0.01 to 0.1 µM
[2]; Homo sapiens, NCI-H358
  EC50: < 5 µM

## C=CC(=O)N1CC[C@H](C(=O)N(C)[C@H](C(=O)N[C@H]2Cc3cc(O)cc(c3)-c3ccc4c(c3)c(c(-c3ccc(CC(=O)O)cc3)n4CC)CC(C)(C)COC(=O)[C@@H]3CCCN(N3)C2=O)C(C)C)C1 [Example A21]
[1]; Homo sapiens, NCI-H358, 120 h
  IC50: > 1 µM
[2]; Homo sapiens, NCI-H358
  EC50: < 5 µM

## C=CC(=O)N1CC[C@H](C(=O)N(C)[C@H](C(=O)N[C@H]2Cc3cc(O)cc(c3)-c3ccc4c(c3)c(c(-c3ccccc3[C@H](C)OC)n4CC)CC(C)(C)COC(=O)[C@@H]3CCCN(N3)C2=O)C(C)C)C1 [Example A22]
[1]; Homo sapiens, NCI-H358, 120 h
  IC50: 0.01 to 0.1 µM
[2]; Homo sapiens, NCI-H358
  EC50: < 5 µM

## C=CC(=O)N1CC[C@H](C(=O)N(C)[C@H](C(=O)N[C@H]2Cc3cc(O)cc(c3)-c3ccc4c(c3)c(c(-c3ccccc3)n4CC)CC(C)(C)COC(=O)[C@@H]3CCCN(N3)C2=O)C(C)C)C1 [Example A23]
[1]; Homo sapiens, NCI-H358, 120 h
  IC50: 0.1 to 1 µM
[2]; Homo sapiens, NCI-H358
  EC50: < 5 µM

## C=CC(=O)N1CC[C@H](C(=O)N(C)[C@H](C(=O)N[C@H]2Cc3cc(O)cc(c3)-c3ccc4c(c3)c(c(-c3c(F)cccc3CCOC)n4CC)CC(C)(C)COC(=O)[C@@H]3CCCN(N3)C2=O)C(C)C)C1 [Example A25]
[1]; Homo sapiens, NCI-H358, 120 h
  IC50: 0.1 to 1 µM
[2]; Homo sapiens, NCI-H358
  EC50: < 5 µM

## C=CC(=O)N1CC[C@H](C(=O)N(C)[C@H](C(=O)N[C@H]2Cc3cc(O)cc(c3)-c3ccc4c(c3)c(c(-c3ccccc3N3CCOCC3)n4CC)CC(C)(C)COC(=O)[C@@H]3CCCN(N3)C2=O)C(C)C)C1 [Example A26]
[1]; Homo sapiens, NCI-H358, 120 h
  IC50: 0.1 to 1 µM
[2]; Homo sapiens, NCI-H358
  EC50: < 5 µM

## C=CC(=O)N1CC[C@H](C(=O)N(C)[C@H](C(=O)N[C@H]2Cc3cc(O)cc(c3)-c3ccc4c(c3)c(c(-c3ccccc3COC)n4CC)CC(C)(C)COC(=O)[C@@H]3CCCN(N3)C2=O)C2CCCC2)C1 [Example A27]
[1]; Homo sapiens, NCI-H358, 120 h
  IC50: 0.01 to 0.1 µM
[2]; Homo sapiens, NCI-H358
  EC50: < 5 µM

## C=CC(=O)N1CC[C@H](C(=O)N(C)[C@H](C(=O)N[C@H]2Cc3cc(O)cc(c3)-c3ccc4c(c3)c(c(-c3cnccc3COC)n4CC)CC(C)(C)COC(=O)[C@@H]3CCCN(N3)C2=O)C(C)C)C1 [Example A28, (2S)-N-[(8S,14S)-22-ethyl-4-hydroxy-21-[4-(methoxymethyl)pyridin-3-yl]-18,18-dimethyl-9,15-dioxo-16-oxa-10,22,28-triazapentacyclo[18.5.2.1^[2,6].1^[10,14].0^[23,27]]nonacosa-1(26),2,4,6(29),20,23(27),24-heptaen-8-yl]-3-methyl-2-[N-methyl-1-[(3S)-1-(prop-2-enoyl)pyrrolidin-3-yl]formamido]butanamide]
[1]
  IC50: < 0.01 µM
[2]
  EC50: < 5 µM

## C=CC(=O)N1CC[C@H](C(=O)N(C)[C@H](C(=O)N[C@H]2Cc3cc(O)cc(c3)-c3ccc4c(c3)c(c(-c3ccccc3[C@@H](C)OC)n4CC)CC(C)(C)COC(=O)[C@@H]3CCCN(N3)C2=O)C(C)C)C1 [Example A29]
[1]; Homo sapiens, NCI-H358, 120 h
  IC50: 0.1 to 1 µM
[2]; Homo sapiens, NCI-H358
  EC50: < 5 µM
